PMC11669914, “Identification and characterization of a novel chromosome-encoded aminoglycoside O-nucleotidyltransferase gene, ant(9)-Id, in Providencia sp. TYF-12 isolated from the marine fish intestine” (Frontiers in Microbiology, 2024)
Values after ≈ are worked out from the molar mass of the structure shown.

Experiments:
[1] = test system: T1, Escherichia coli ACTT25922; test: microbe, parasite or virus in culture; set-up: CLSI agar dilution MIC, bacterial growth inhibition
T1 construct: ATCC 25922
Excerpt: (§1) In accordance with the standards of the Clinical and Laboratory Standards Institute (CLSI),^1 the agar dilution method was used to determine the minimum inhibitory concentration (MIC). E. coli ATCC 25922 served as a quality control for antibiotic susceptibility testing. The tested antimicrobial agents included spectinomycin, tobramycin, streptomycin, netilmicin, paromomycin and amikacin (Table 2).

[2] = test system: T2, Enterococcus faecalis ATCC29212; test: microbe, parasite or virus in culture; set-up: CLSI agar dilution MIC, bacterial growth inhibition
T2 construct: ATCC 29212
Excerpt: as §1

[3] = test system: CN[C@@H]1[C@H](O)[C@H](NC)[C@H]2O[C@@]3(O)C(=O)C[C@@H](C)O[C@H]3O[C@@H]2[C@H]1O; test: purified protein; type: biochemical, Providencia rettgeri; conditions: 2 mM ATP, 10 mM MgCl2, 50 mM HEPES pH 7.5, 500 μM DTT, 37 °C

| Compound | MIC [1] | MIC [2] | Km [3] | kcat [3] | kcat/Km [3] |
| --- | --- | --- | --- | --- | --- |
| CC(C)(O/N=C(\C(=O)N[C@@H]1C(=O)N2C(C(=O)[O-])=C(C[n+]3ccccc3)CS[C@H]12)c1csc(N)n1)C(=O)O [ceftazidime] | ≤ 1 µg/mL | 128 µg/mL (≈ 234 µM) |  |  |  |
| CN(C)[C@@H]1C(O)=C(C(N)=O)C(=O)[C@@]2(O)C(O)=C3C(=O)c4c(O)cccc4[C@@](C)(O)[C@H]3C[C@@H]12 [tetracycline] | 1 µg/mL (≈ 2.25 µM) | 8 µg/mL (≈ 18 µM) |  |  |  |
| O=C(N[C@H](CO)[C@H](O)c1ccc([N+](=O)[O-])cc1)C(Cl)Cl [chloramphenicol] | 4 µg/mL (≈ 12.4 µM) | 4 µg/mL (≈ 12.4 µM) |  |  |  |
| C[C@H]1c2cccc(O)c2C(=O)C2=C(O)[C@]3(O)C(=O)C(C(N)=O)=C(O)[C@@H](N(C)C)[C@@H]3[C@@H](O)[C@@H]21 [doxycycline] | 1 µg/mL (≈ 2.25 µM) | 4 µg/mL (≈ 9 µM) |  |  |  |
| CN[C@@H]1[C@H](O[C@H]2[C@H](O[C@H]3[C@H](O)[C@@H](O)[C@H](N=C(N)N)[C@@H](O)[C@@H]3N=C(N)N)O[C@@H](C)[C@]2(O)C=O)O[C@@H](CO)[C@H](O)[C@H]1O [streptomycin] | 8 µg/mL (≈ 13.8 µM) | 128 µg/mL (≈ 220 µM) |  |  |  |
| C=C[C@]1(C)C[C@@H](OC(=O)CSCCN(CC)CC)[C@]2(C)[C@H](C)CC[C@]3(CCC(=O)[C@H]32)[C@@H](C)[C@@H]1O [tiamulin] | > 512 µg/mL | 64 µg/mL (≈ 130 µM) |  |  |  |
| ANT(9)-Id (Providencia rettgeri) |  |  | 8.94 ± 2.50 µM | 232 ± 59.8 s⁻¹ | 2.62e+07 ± 2.95e+06 M⁻¹ s⁻¹ |
| CC(=O)c1c(C)[n+]([O-])c2ccccc2[n+]1[O-] [mequindox] | 8 µg/mL (≈ 36.7 µM) | 64 µg/mL (≈ 293 µM) |  |  |  |
